Test results reported in BindingDB's records for patent US10654860 (Bristol Myers Squibb, 2020).

Target: Rho-associated protein kinase 2 (Homo sapiens, UniProt O75116)
Test: In Vitro Assay
Method: The effectiveness of compounds of the present invention as ROCK inhibitors can be determined in a 30 μL, assay containing 20 mM HEPES, pH 7.5, 20 mM MgCl2, 0.015% Brij-35, 4 mM DTT, 5 μM ATP and 1.5 μM peptide substrate (FITC-AHA-AKRRRLSSLRA-OH). Compounds were dissolved in DMSO so that the final concentration of DMSO was <2%, and the reaction was initiated with Rho kinase variants. After incubation, the reaction was terminated by the addition of EDTA and the phosphorylated and non-phosphorylated peptides separated using a LABCHIP 3000 Reader (Caliper Life Sciences). […] Compounds were tested in dose-response format, and the inhibition of kinase activity was calculated at each concentration of compound.

Rho-associated protein kinase 2, sequence (O75116 whole entry): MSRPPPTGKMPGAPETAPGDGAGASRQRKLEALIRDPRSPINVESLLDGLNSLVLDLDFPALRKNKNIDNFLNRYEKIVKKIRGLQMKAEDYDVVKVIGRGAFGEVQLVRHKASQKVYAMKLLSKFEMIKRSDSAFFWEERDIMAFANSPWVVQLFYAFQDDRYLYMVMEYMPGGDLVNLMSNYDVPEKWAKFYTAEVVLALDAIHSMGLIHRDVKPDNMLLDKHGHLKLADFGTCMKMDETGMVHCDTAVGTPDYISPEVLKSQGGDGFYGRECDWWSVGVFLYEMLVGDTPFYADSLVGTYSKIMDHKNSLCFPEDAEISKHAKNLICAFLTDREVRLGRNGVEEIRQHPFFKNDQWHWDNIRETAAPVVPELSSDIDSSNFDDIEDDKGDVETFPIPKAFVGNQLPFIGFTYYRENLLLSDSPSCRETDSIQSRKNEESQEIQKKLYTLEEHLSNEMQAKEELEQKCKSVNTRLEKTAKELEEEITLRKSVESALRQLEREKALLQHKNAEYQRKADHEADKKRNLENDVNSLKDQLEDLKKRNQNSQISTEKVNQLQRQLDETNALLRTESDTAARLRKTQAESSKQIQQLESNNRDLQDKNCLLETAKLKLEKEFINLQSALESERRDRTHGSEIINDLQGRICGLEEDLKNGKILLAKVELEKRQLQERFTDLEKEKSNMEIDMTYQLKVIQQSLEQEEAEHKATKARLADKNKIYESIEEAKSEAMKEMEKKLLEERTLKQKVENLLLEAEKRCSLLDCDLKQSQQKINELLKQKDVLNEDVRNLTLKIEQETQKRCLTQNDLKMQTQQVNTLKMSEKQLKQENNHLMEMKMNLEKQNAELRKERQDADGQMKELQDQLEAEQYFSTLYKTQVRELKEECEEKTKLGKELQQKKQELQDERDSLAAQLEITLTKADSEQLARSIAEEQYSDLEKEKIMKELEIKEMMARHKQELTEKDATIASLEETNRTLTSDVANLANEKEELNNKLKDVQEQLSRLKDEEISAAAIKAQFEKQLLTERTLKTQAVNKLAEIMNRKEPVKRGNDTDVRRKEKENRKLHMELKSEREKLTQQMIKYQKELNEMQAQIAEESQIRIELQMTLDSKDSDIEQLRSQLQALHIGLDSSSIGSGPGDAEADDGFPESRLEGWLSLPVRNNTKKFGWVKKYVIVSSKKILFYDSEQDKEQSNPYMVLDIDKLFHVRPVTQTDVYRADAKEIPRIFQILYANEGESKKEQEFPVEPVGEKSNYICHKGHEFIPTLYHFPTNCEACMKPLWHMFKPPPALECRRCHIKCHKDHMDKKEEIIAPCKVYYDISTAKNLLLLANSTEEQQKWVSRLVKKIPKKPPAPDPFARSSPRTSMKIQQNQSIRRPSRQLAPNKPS

IC50: < 10 nM
SMILES: N[C@H](CCc1ccccc1)C(=O)Nc1ccc2c(c1)CCc1n[nH]cc1-2 [US10654860, Example 4]
